20 molecules from patent US9745283B2, “Uracil derivatives as AXL and c-MET kinase inhibitors” (priority 2011, dated 2017) can be followed below.

For experiment [1], the target named is recombinant human baculovirus-expressed cMET (Homo sapiens (Human), UniProt P08581). In words: C-MET Kinase Assay (HTRF KinEASE). Conditions: average of two or more determinations; read-out: c-MET IC50. The class given is biochemical. Summed up: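 HTRF KinEASE format with recombinant human baculovirus-expressed cMET at 8 ng/mL, biotinylated peptide at 0.1 μM and ATP at 0.02 μM. IC50 came from percent control activity versus log concentration, fitted by nonlinear regression to a variable-slope sigmoidal equation with bottom fixed at 0 and top at 100.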
For orientation: In TR-FRET formats the signal depends on donor and acceptor labels being close together.

The target in experiment [2] is recombinant human baculovirus-expressed AXL (Homo sapiens (Human), UniProt P30530). The experiment can be described thus: AXL Kinase Assay (HTRF KinEASE). Conditions: average of two or more determinations. The class given is biochemical. On the procedure: The ability of compounds to inhibit the kinase activity of recombinant human baculovirus-expressed AXL was measured by homogeneous TRF (HTRF) using Cisbio's KinEASE™ assay system in white 384-well Optiplates. Assay buffer contained 1 mM DTT, 2 mM MnCl2, 2% DMSO, […] supplement enzymatic buffer, and 1× enzymatic buffer. A 2× concentration of tyrosine kinase (TK) substrate-biotin/ATP mixture made in assay buffer was added to plates at 10 μL/well using the Multidrop Combi (Thermo Fisher Scientific, Waltham, Mass.). […] Compounds (100 nL), diluted in 100% DMSO on the Biomek FX, (Beckman Coulter, Inc., Brea, Calif.), were transferred to the assay plates using the Biomek FX pintool (2.5% final DMSO in assay). […] Plates were sealed, briefly shaken and incubated at 25° C. for 30 minutes. […] Plates were sealed, briefly shaken and incubated at 25° C. for 1 hour.
Inhibition curves for compounds were generated by plotting percent control activity versus log 10 of the concentration of compound. IC50 values were calculated by nonlinear regression using the sigmoidal dose-response (variable slope) equation in GraphPad Prism as follows: y=bottom+(top−bottom)/(1+10(log IC50−x)*Hill Slope) where y is the % kinase activity at a given concentration of compound, x is the logarithm of the concentration of compound, bottom is the % of control kinase activity at the highest compound concentration tested, and top is the % of control kinase activity at the lowest compound concentration examined. The values for bottom and top were fixed at 0 and 100, respectively.

pIC50: −log10 of the molar value.

Consider `COc1cc2nccc(Oc3ccc(NC(=O)c4cn(CCN5CCCCC5)c(=O)n(-c5ccc(F)cc5)c4=O)cc3F)c2cc1OC` [Example 27, 3-(4-Fluorophenyl)-2,4-dioxo-1-(2-piperidin-1-yl-ethyl)-1,2,3,4-tetrahydropyrimidine-5-carboxylic acid [4-(6,7-dimethoxyquinolin-4-yloxy)-3-fluorophenyl]-amide], for which the pIC50 in experiment [1] is 7.00 to 8.00; in experiment [2], more than 8.00.

With `CCn1cc(C(=O)Nc2ccc(Oc3ccnc4cc(OC)c(OC)cc34)cc2)c(=O)n(-c2ccc(F)cc2)c1=O` [Example 28, 1-Ethyl-3-(4-fluorophenyl)-2,4-dioxo-1,2,3,4-tetrahydropyrimidine-5-carboxylic acid [4-(6,7-dimethoxyquinolin-4-yloxy)-phenyl]-amide], the pIC50 in experiment [1] and in experiment [2] was more than 8.00 throughout.

In the case of `COc1cc2nccc(Oc3ccc(NC(=O)c4cn(C5CCC5)c(=O)n(-c5ccc(F)cc5)c4=O)cc3F)c2cc1OC` [Example 29, 1-Cyclobutyl-3-(4-fluorophenyl)-2,4-dioxo-1,2,3,4-tetrahydropyrimidine-5-carboxylic acid [4-(6,7-dimethoxyquinolin-4-yloxy)-3-fluorophenyl]-amide], the pIC50 in experiment [1] was 7.00 to 8.00; in experiment [2] it was more than 8.00.

In the case of `COc1cc2nccc(Oc3ccc(NC(=O)c4cn(C5CCOCC5)c(=O)n(-c5ccc(F)cc5)c4=O)cc3F)c2cc1OC` [Example 30, 3-(4-Fluorophenyl)-2,4-dioxo-1-(tetrahydropyran-4-yl)-1,2,3,4-tetrahydropyrimidine-5-carboxylic acid [4-(6,7-dimethoxyquinolin-4-yloxy)-3-fluorophenyl]-amide], the pIC50 in experiment [1] was 7.00 to 8.00; in experiment [2] it was more than 8.00.

As to `CCn1cc(C(=O)Nc2ccc(Oc3ccnc4cc(OC)c(OC)cc34)cn2)c(=O)n(-c2ccc(F)cc2)c1=O` [Example 31, 1-Ethyl-3-(4-fluorophenyl)-2,4-dioxo-1,2,3,4-tetrahydropyrimidine-5-carboxylic acid [5-(6,7-dimethoxyquinolin-4-yloxy)-pyridin-2-yl]-amide], the negative logarithm of the IC50 (pIC50) in experiment [1] is 7.00 to 8.00; in experiment [2], more than 8.00.

For the molecule `CCn1c(C)c(C(=O)Nc2ccc(Oc3ccnc4cc(OC)c(OC)cc34)c(F)c2)c(=O)n(-c2ccc(F)cc2)c1=O` [Example 32, 1-Ethyl-3-(4-fluorophenyl)-6-methyl-2,4-dioxo-1,2,3,4-tetrahydropyrimidine-5-carboxylic acid [4-(6,7-dimethoxyquinolin-4-yloxy)-3-fluorophenyl]-amide], the negative logarithm of the IC50 (pIC50) in experiment [1] and in experiment [2] was more than 8.00 throughout.

For `CCOc1cc2nccc(Oc3ccc(NC(=O)c4cn(CC)c(=O)n(-c5ccc(F)cc5)c4=O)cc3F)c2cc1OCC` [Example 33, 1-Ethyl-3-(4-fluorophenyl)-2,4-dioxo-1,2,3,4-tetrahydropyrimidine-5-carboxylic acid [4-(6,7-diethoxyquinolin-4-yloxy)-3-fluorophenyl]-amide], the pIC50 was 7.00 to 8.00 in experiment [1] and more than 8.00 in experiment [2].

On to `COc1cc2nccc(Oc3ccc(NC(=O)c4cn(C(C)C)c(=O)n(-c5ccc(F)cc5)c4=O)nc3)c2cc1OC` [Example 34, 3-(4-Fluorophenyl)-1-isopropyl-2,4-dioxo-1,2,3,4-tetrahydropyrimidine-5-carboxylic acid [5-(6,7-dimethoxyquinolin-4-yloxy)-pyridin-2-yl]-amide], for which the negative-log IC50 (pIC50) in experiment [1] was 7.00 to 8.00; in experiment [2] it was more than 8.00.

Take `COc1cc2nccc(Oc3ccc(NC(=O)c4cn(CCO)c(=O)n(-c5ccc(F)cc5)c4=O)cc3F)c2cc1OC` [Example 49, 3-(4-Fluorophenyl)-1-(2-hydroxyethyl)-2,4-dioxo-1,2,3,4-tetrahydropyrimidine-5-carboxylic acid [4-(6,7-dimethoxyquinolin-4-yloxy)-3-fluorophenyl]-amide]: the pIC50 in experiment [1] and in experiment [2] was more than 8.00 in each case.

Consider `COc1cc2nccc(Oc3ccc(NC(=O)c4cn(CCCO)c(=O)n(-c5ccc(F)cc5)c4=O)cc3F)c2cc1OC` [Example 50, 3-(4-Fluorophenyl)-1-(3-hydroxypropyl)-2,4-dioxo-1,2,3,4-tetrahydropyrimidine-5-carboxylic acid [4-(6,7-dimethoxyquinolin-4-yloxy)-3-fluorophenyl]-amide], for which the pIC50 in experiment [1] and in experiment [2] was more than 8.00 each time.

As to `COc1cc2nccc(Oc3ccc(NC(=O)c4cn(CCCO)c(=O)n(-c5ccc(F)cc5)c4=O)c(F)c3)c2cc1OC` [Example 51, 3-(4-Fluorophenyl)-1-(3-hydroxypropyl)-2,4-dioxo-1,2,3,4-tetrahydropyrimidine-5-carboxylic acid [4-(6,7-dimethoxy-quinolin-4-yloxy)-2-fluoro-phenyl]-amide], the pIC50 in experiment [1] and in experiment [2] was more than 8.00 throughout.

As to `COc1cc2nccc(Oc3ccc(NC(=O)c4cn(CCCO)c(=O)n(-c5ccc(F)cc5)c4=O)cc3)c2cc1OC` [Example 52, 3-(4-Fluorophenyl)-1-(3-hydroxypropyl)-2,4-dioxo-1,2,3,4-tetrahydropyrimidine-5-carboxylic acid [4-(6,7-dimethoxyquinolin-4-yloxy)phenyl]-amide], the negative-log IC50 (pIC50) in experiment [1] was 7.00 to 8.00; in experiment [2] it was more than 8.00.

Turning to `COc1cc2nccc(Oc3ccc(NC(=O)c4cn(CCO)c(=O)n(-c5ccc(F)cc5)c4=O)cc3)c2cc1OC` [Example 53, 3-(4-Fluorophenyl)-1-(2-hydroxyethyl)-2,4-dioxo-1,2,3,4-tetrahydropyrimidine-5-carboxylic acid [4-(6,7-dimethoxyquinolin-4-yloxy)phenyl]-amide], the pIC50 in experiment [1] and in experiment [2] was more than 8.00 in each case.

In the case of `COc1cc2nccc(Oc3ccc(NC(=O)c4cn(C[C@H](O)CO)c(=O)n(-c5ccc(F)cc5)c4=O)cc3F)c2cc1OC` [Example 54, 1-((S)-2,3-Dihydroxypropyl)-3-(4-fluorophenyl)-2,4-dioxo-1,2,3,4-tetrahydropyrimidine-5-carboxylic acid [4-(6,7-dimethoxyquinolin-4-yloxy)-3-fluorophenyl]-amide], the pIC50 is 7.00 to 8.00 in experiment [1] and more than 8.00 in experiment [2].

On to `COc1cc2nccc(C(O)c3ccc(NC(=O)c4cn(C)c(=O)n(-c5ccc(F)cc5)c4=O)cc3F)c2cc1OC` (stereo not shown) [Example 57, 3-(4-fluoro-phenyl)-1-methyl-2,4-dioxo-1,2,3,4-tetrahydro-pyrimidine-5-carboxylic acid {4-[(6,7-dimethoxy-quinolin-4-yl)-hydroxy-methyl]-3-fluoro-phenyl}-amide], for which the negative logarithm of the IC50 (pIC50) in experiment [1] was 6.00 to 7.00; in experiment [2], more than 8.00.

`COc1cc2nccc(Cc3ccc(NC(=O)c4cn(C)c(=O)n(-c5ccc(F)cc5)c4=O)cc3F)c2cc1OC` [Example 58, 3-(4-fluoro-phenyl)-1-methyl-2,4-dioxo-1,2,3,4-tetrahydro-pyrimidine-5-carboxylic acid [4-(6,7-dimethoxy-quinolin-4-ylmethyl)-3-fluoro-phenyl]-amide]: the negative-log IC50 (pIC50) is 7.00 to 8.00 in experiment [1] and more than 8.00 in experiment [2].

With `C#CCn1cc(C(=O)Nc2ccc(Oc3ccnc4cc(OC)c(OC)cc34)c(F)c2)c(=O)n(-c2ccc(F)cc2)c1=O` [Example 61, 3-(4-Fluoro-phenyl)-2,4-dioxo-1-prop-2-ynyl-1,2,3,4-tetrahydro-pyrimidine-5-carboxylic acid [4-(6,7-dimethoxy-quinolin-4-yloxy)-3-fluoro-phenyl]-amide], the pIC50 in experiment [1] and in experiment [2] was more than 8.00 throughout.

For `COc1cc2nccc(Oc3ccc(NC(=O)c4cn(CCn5ccnc5)c(=O)n(-c5ccc(F)cc5)c4=O)cc3F)c2cc1OC` [Example 62, 3-(4-Fluoro-phenyl)-1-(2-imidazol-1-yl-ethyl)-2,4-dioxo-1,2,3,4-tetrahydro-pyrimidine-5-carboxylic acid [4-(6,7-dimethoxy-quinolin-4-yloxy)-3-fluoro-phenyl]-amide], the pIC50 in experiment [1] and in experiment [2] was more than 8.00 in each case.

Regarding `COc1cc2nccc(Oc3ccc(NC(=O)c4cn(CCn5cccn5)c(=O)n(-c5ccc(F)cc5)c4=O)cc3F)c2cc1OC` [Example 63, 3-(4-Fluoro-phenyl)-2,4-dioxo-1-(2-pyrazol-1-yl-ethyl)-1,2,3,4-tetrahydro-pyrimidine-5-carboxylic acid [4-(6,7-dimethoxy-quinolin-4-yloxy)-3-fluoro-phenyl]-amide], the pIC50 in experiment [1] and in experiment [2] was more than 8.00 in each case.

With `COc1cc2nccc(Oc3ccc(NC(=O)c4cn(CCc5ccccc5)c(=O)n(-c5ccc(F)cc5)c4=O)cc3F)c2cc1OC` [Example 64, 3-(4-Fluoro-phenyl)-2,4-dioxo-1-phenethyl-1,2,3,4-tetrahydro-pyrimidine-5-carboxylic acid [4-(6,7-dimethoxy-quinolin-4-yloxy)-3-fluoro-phenyl]-amide], the negative logarithm of the IC50 (pIC50) in experiment [1] was 7.00 to 8.00; in experiment [2], more than 8.00.

What is called pIC50 is −log10 of the IC50, conventionally taken in molar units.
